Active and inactive are the calls of the source. The calls are words filed in the database; no cut-off is given here.
Legend:
[1] = test system: P388; experiment: Cytotoxicity against mouse P388 cells by MTT assay; type: functional, cell-based
[2] = test system: Serratia marcescens; experiment: Antimicrobial activity against Serratia marcescens ATCC 25419 at 100 ug/disk; type: functional, organism-based
[3] = test system: Yersinia enterocolitica; experiment: Antimicrobial activity against Yersinia enterocolitica ATCC 23715 at 100 ug/disk; type: functional, organism-based
[4] = test system: Shigella sonnei; experiment: Antimicrobial activity against Shigella sonnei ATCC 11060 at 100 ug/disk; type: functional, organism-based
[5] = test system: Klebsiella aerogenes; experiment: Antimicrobial activity against Enterobacter aerogenes ATCC 13048 at 100 ug/disk; type: functional, organism-based
[6] = test system: A549; experiment: Cytotoxicity against human A549 cells by MTT assay; type: functional, cell-based
[7] = test system: Salmonella enteritidis; experiment: Antimicrobial activity against Salmonella enteritidis ATCC 13076 at 100 ug/disk; type: functional, organism-based; details: Salmonella enterica subsp. enterica serovar Enteritidis
[8] = test system: Human betaherpesvirus 5; experiment: Antiviral activity against HCMV infected in HEL cells assessed as reduction of virus plaque formation; type: functional, organism-based; details: Human betaherpesvirus 5, HEL
[9] = test system: RAW264.7; experiment: Antiinflammatory activity in mouse RAW264.7 cells assessed as iNOS protein expression level at 10 uM; type: functional

| SMILES | inhibition [1] | inhibition [2] | inhibition [3] | inhibition [4] | inhibition [5] | inhibition [6] | inhibition [7] | IC50 [8] | Activity [9] |
| --- | --- | --- | --- | --- | --- | --- | --- | --- | --- |
| C=C(CCC=C(C)C)[C@@H]1CC/C(C)=C/CCC(=C)[C@@H](O)C1 | inactive | inactive | inactive | inactive | inactive | inactive | inactive |  |  |
| C=C(CCC=C(C)C)[C@H]1CC[C@@]2(C)[C@H](C1)C(C)=CC[C@@H]2O [GYROSANOL A] | inactive | inactive | inactive | inactive | inactive | inactive | inactive | 2600 nM | 118.5% |

— ChEMBL document CHEMBL1165984, “Antiviral and anti-inflammatory diterpenoids from the soft coral Sinularia gyrosa” (J Nat Prod, 2010)
